Data reported in patent US10336730B2, “Substituted glycine derived FXIA inhibitors” (BRISTOL-MYERS SQUIBB COMPANY, priority 2015, dated 2019).

Columns and labels:
[1] = molecular target: T1, purified human Factor XIa (Homo sapiens, UniProt P03951); experiment: Factor XIa enzyme inhibition assay (chromogenic substrate S-2366), Ki; format: biochemical; details: substrate S-2366, pH 7.4
T1 construct: purchased Haematologic Technologies
Method in brief: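 Purified human Factor XIa ([…] final) with chromogenic substrate S-2366 (0.0002-0.001 M) in 50 mM HEPES pH 7.4, 145 mM NaCl, 5 mM KCl, 0.1% PEG 8000. Velocities measured over 20-180 minutes with and without inhibitor; Ki derived assuming competitive inhibition, e.g. Ki=IC50/(1+S/Km).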

[2] = molecular target: T2, purified human plasma kallikrein (Homo sapiens, UniProt P03952); experiment: Plasma kallikrein enzyme inhibition assay (chromogenic substrate S-2302), Ki; format: biochemical; details: substrate S-2302, pH 7.5
T2 construct: purchased Enzyme Research Laboratories
Experimental: The effectiveness of compounds of the present invention as inhibitors of the coagulation Factors XIa, VIIa, IXa, Xa, XIIa, plasma kallikrein, thrombin, chemytrypsin or trypsin can be determined using a relevant purified serine protease, respectively, and an appropriate synthetic substrate. The rate of hydrolysis of the chromogenic or fluorogenic substrate by the relevant serine protease was measured both in the absence and presence of compounds of the present invention. […] A decrease in the rate of absorbance or fluorescence change in the presence of inhibitor is indicative of enzyme inhibition. Such methods are known to one skilled in the art. The results of this assay are expressed as the inhibitory constant, Ki.
Plasma kallikrein determinations were made in 0.1 M sodium phosphate buffer at a pH of 7.5 containing 0.1-0.2 M sodium chloride and 0.5% PEG 8000. Determinations were made using purified human plasma kallikrein (Enzyme Research Laboratories) at a final assay concentration of […] and the synthetic substrate S-2302 (H-(D)-Pro-Phe-Arg-pNA; CHROMOGENIX®) at a concentration of 0.00008-0.0004 M.
Values of Ki were determined by allowing the protease to react with the substrate in the presence of the inhibitor. Reactions were allowed to go for periods of 20-180 minutes (depending on the protease) and the velocities (rate of absorbance or fluorescence change versus time) were measured. The following relationships were used to calculate Ki values: (Vmax*S)/(Km+S) (vo−vs)/vs=I/(Ki*(1+S/Km)) for a competitive inhibitor with one binding site; or vs/vo=A+(B−A)/(1+(IC50/(I)^n)); and Ki=IC50/(1+S/Km) for a competitive inhibitor where: […]

T1 sequence (P03951 388-625 limits assumed): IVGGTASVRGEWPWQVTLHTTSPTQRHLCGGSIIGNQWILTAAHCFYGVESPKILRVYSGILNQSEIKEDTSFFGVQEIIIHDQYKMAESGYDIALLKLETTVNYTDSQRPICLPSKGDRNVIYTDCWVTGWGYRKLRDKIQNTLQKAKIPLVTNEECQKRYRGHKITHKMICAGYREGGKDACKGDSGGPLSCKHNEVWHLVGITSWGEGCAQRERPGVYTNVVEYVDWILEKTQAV
T1 sequence (P03951 19-387 partner limits assumed): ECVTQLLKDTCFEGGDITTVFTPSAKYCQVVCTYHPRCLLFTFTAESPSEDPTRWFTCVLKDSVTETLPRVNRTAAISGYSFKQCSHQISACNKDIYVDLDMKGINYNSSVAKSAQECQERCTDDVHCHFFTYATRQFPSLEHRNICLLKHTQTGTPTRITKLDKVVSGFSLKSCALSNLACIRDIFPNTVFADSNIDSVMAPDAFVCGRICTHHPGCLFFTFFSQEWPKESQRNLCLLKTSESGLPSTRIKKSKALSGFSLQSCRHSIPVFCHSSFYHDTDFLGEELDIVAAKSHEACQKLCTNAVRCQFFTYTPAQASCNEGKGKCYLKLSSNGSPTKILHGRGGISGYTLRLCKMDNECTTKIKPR
T2 sequence (P03952 391-638 limits assumed): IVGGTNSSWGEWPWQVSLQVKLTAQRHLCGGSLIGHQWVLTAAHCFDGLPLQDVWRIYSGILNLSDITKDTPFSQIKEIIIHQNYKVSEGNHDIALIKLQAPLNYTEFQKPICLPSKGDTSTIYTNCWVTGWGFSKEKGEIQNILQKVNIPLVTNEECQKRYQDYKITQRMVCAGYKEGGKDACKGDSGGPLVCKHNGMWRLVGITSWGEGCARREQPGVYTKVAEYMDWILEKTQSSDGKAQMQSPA
T2 sequence (P03952 20-390 partner limits assumed): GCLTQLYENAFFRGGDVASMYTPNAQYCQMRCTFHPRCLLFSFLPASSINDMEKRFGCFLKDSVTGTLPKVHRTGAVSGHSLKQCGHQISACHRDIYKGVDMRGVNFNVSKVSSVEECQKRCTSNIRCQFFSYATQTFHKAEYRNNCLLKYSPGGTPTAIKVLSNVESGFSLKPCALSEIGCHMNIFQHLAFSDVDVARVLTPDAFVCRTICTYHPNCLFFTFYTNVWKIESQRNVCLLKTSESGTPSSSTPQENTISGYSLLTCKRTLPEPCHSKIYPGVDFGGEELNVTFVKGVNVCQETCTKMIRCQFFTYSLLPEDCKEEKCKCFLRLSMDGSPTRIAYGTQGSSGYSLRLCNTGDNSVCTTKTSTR

Compound | Ki [1] [µM] | Ki [2] [µM]
O=C(Nc1ccc2c(c1)OCO2)[C@H](Cc1ccccc1)n1cnc(-c2cc(Cl)ccc2-n2cc(Cl)nn2)cc1=O [Example 18, (S)—N-(benzo[d][1,3]dioxol-5-yl)-2-(4-(5-chloro-2-(4-chloro-1H-1,2,3-triazol-1-yl)phenyl)-6-oxopyrimidin-1(6H)-yl)-3-phenylpropanamide] | 0.0994 | 1.48
O=C(NCc1ccccc1)[C@H](Cc1ccccc1)n1cnc(-c2cc(Cl)ccc2-n2cc(Cl)nn2)cc1=O [Example 19, (S)—N-benzyl-2-(4-(5-chloro-2-(4-chloro-1H-1,2,3-triazol-1-yl)phenyl)-6-oxopyrimidin-1(6H)-yl)-3-phenylpropanamide] | 0.357 | 13.3
COC(=O)Cn1cc(NC(=O)[C@H](Cc2ccccc2)n2cnc(-c3cc(Cl)ccc3-n3cc(Cl)nn3)cc2=O)cn1 [Example 10, Methyl 2-{4-[(2S)-2-{4-[5-chloro-2-(4-chloro-1H-1,2,3-triazol-1-yl)phenyl]-6-oxo-1,6-dihydropyrimidin-1-yl}-3-phenylpropanamido]-1H-pyrazol-1-yl}acetate] | 0.104 | 3.86
O=C(O)c1ccc(NC(=O)[C@H](Cc2ccccc2)n2ncc(-c3cc(Cl)ccc3-n3cc(C(F)(F)F)nn3)cc2=O)cc1 [Example 143, 4-[(2S)-2-(4-{5-Chloro-2-[4-(trifluoromethyl)-1H-1,2,3-triazol-1-yl]phenyl}-6-oxo-1,6-dihydropyridazin-1-yl)-3-phenyl-propanamido]benzoic Acid] | 0.0055 | 0.569
O=C(Nc1ccncc1)[C@H](Cc1ccccc1)n1cnc(-c2cc(Cl)ccc2-n2cc(Cl)nn2)cc1=O [Example 13, (S)-2-(4-(5-chloro-2-(4-chloro-1H-1,2,3-triazol-1-yl)phenyl)-6-oxopyrimidin-1(6H)-yl)-3-phenyl-N-(pyridin-4-yl)propanamide] | 0.0436 | 0.984
COC(=O)c1cc(NC(=O)[C@H](Cc2ccccc2)n2cnc(-c3cc(Cl)ccc3-n3cc(Cl)nn3)cc2=O)cn1C [Example 40, methyl (S)-4-(2-(4-(5-chloro-2-(4-chloro-1H-1,2,3-triazol-1-yl)phenyl)-6-oxopyrimidin-1(6H)-yl)-3-phenylpropanamido)-1-methyl-1H-pyrrole-2-carboxylate] | 0.172 | –
CC1(C)Oc2ccc(NC(=O)[C@H](Cc3ccccc3)n3cnc(-c4cc(Cl)ccc4-n4cc(Cl)nn4)cc3=O)nc2NC1=O [Example 35, (S)-2-(4-(5-chloro-2-(4-chloro-1H-1,2,3-triazol-1-yl)phenyl)-6-oxopyrimidin-1(6H)-yl)-N-(2,2-dimethyl-3-oxo-3,4-dihydro-2H-pyrido[3,2-b][1,4]oxazin-6-yl)-3-phenylpropanamide] | 4.07 | –
CN1CCN(C(=O)[C@H](Cc2ccccc2)n2cnc(-c3cc(Cl)ccc3-n3cc(Cl)nn3)cc2=O)CC1 [Example 68, (S)-6-(5-chloro-2-(4-chloro-1H-1,2,3-triazol-1-yl)phenyl)-3-(1-(4-methylpiperazin-1-yl)-1-oxo-3-phenylpropan-2-yl)pyrimidin-4(3H)-one] | 4.41 | –
O=C(Nc1n[nH]c2cccnc12)[C@H](Cc1ccccc1)n1cnc(-c2cc(Cl)ccc2-n2cc(Cl)nn2)cc1=O [Example 122, (S)-2-(4-(5-chloro-2-(4-chloro-1H-1,2,3-triazol-1-yl)phenyl)-6-oxopyrimidin-1(6H)-yl)-3-phenyl-N-(1H-pyrazolo[4,3-b]pyridin-3-yl)propanamide] | 0.632 | –
COC(=O)CCNC(=O)[C@H](Cc1ccccc1)n1cnc(-c2cc(Cl)ccc2-n2cc(Cl)nn2)cc1=O [Example 61, methyl (S)-3-(2-(4-(5-chloro-2-(4-chloro-1H-1,2,3-triazol-1-yl)phenyl)-6-oxopyrimidin-1(6H)-yl)-3-phenylpropanamido)propanoate] | 3.65 | –
Cc1nc2ccc(CNC(=O)[C@H](Cc3ccccc3)n3cnc(-c4cc(Cl)ccc4-n4cc(Cl)nn4)cc3=O)cc2[nH]1 [Example 116, (S)-2-(4-(5-chloro-2-(4-chloro-1H-1,2,3-triazol-1-yl)phenyl)-6-oxopyrimidin-1(6H)-yl)-N-((2-methyl-1H-benzo[d]imidazol-6-yl)methyl)-3-phenylpropanamide] | 0.463 | –
COCCN(C)C(=O)[C@H](Cc1ccccc1)n1cnc(-c2cc(Cl)ccc2-n2cc(Cl)nn2)cc1=O [Example 58, (S)-2-(4-(5-chloro-2-(4-chloro-1H-1,2,3-triazol-1-yl)phenyl)-6-oxopyrimidin-1(6H)-yl)-N-(2-methoxyethyl)-N-methyl-3-phenylpropanamide] | 7.86 | –
O=C(NC1COc2ccccc21)[C@H](Cc1ccccc1)n1cnc(-c2cc(Cl)ccc2-n2cc(Cl)nn2)cc1=O (stereo partly drawn) [Example 128, (2S)-2-(4-(5-chloro-2-(4-chloro-1H-1,2,3-triazol-1-yl)phenyl)-6-oxopyrimidin-1(6H)-yl)-N-(2,3-dihydrobenzofuran-3-yl)-3-phenylpropanamide] | 0.826 | –
COC(=O)c1ccc(NC(=O)[C@H](Cc2ccccc2)n2cnc(-c3cc(Cl)ccc3-n3cc(Cl)nn3)cc2=O)cc1 [Example 22, methyl (S)-4-(2-(4-(5-chloro-2-(4-chloro-1H-1,2,3-triazol-1-yl)phenyl)-6-oxopyrimidin-1(6H)-yl)-3-phenylpropanamido)benzoate] | 0.0837 | –
CCOC(=O)c1cn2c(n1)CN(C(=O)[C@H](Cc1ccccc1)n1cnc(-c3cc(Cl)ccc3-n3cc(Cl)nn3)cc1=O)CC2 [Example 65, ethyl (S)-7-(2-(4-(5-chloro-2-(4-chloro-1H-1,2,3-triazol-1-yl)phenyl)-6-oxopyrimidin-1(6H)-yl)-3-phenylpropanoyl)-5,6,7,8-tetrahydroimidazo[1,2-a]pyrazine-2-carboxylate] | 4.94 | –
Cc1cnc(CNC(=O)[C@H](Cc2ccccc2)n2cnc(-c3cc(Cl)ccc3-n3cc(Cl)nn3)cc2=O)cn1 [Example 51, (S)-2-(4-(5-chloro-2-(4-chloro-1H-1,2,3-triazol-1-yl)phenyl)-6-oxopyrimidin-1(6H)-yl)-N-((5-methylpyrazin-2-yl)methyl)-3-phenylpropanamide] | 1.48 | –
O=C(NCc1ccncc1)[C@H](Cc1ccccc1)n1cnc(-c2cc(Cl)ccc2-n2cc(Cl)nn2)cc1=O [Example 74, (S)-2-(4-(5-chloro-2-(4-chloro-1H-1,2,3-triazol-1-yl)phenyl)-6-oxopyrimidin-1(6H)-yl)-3-phenyl-N-(pyridin-4-ylmethyl)propanamide] | 0.552 | –
O=C(O)c1ccc(NC(=O)[C@H](Cc2ccc(NC(=O)C3CC3)cc2)N2CCC(c3c(F)ccc(Cl)c3F)=CC2=O)cc1 [Example 140, (S)-4-(2-(4-(3-chloro-2,6-difluorophenyl)-6-oxo-3,6-dihydropyridin-1(2H)-yl)-3-(4-(cyclopropanecarboxamido)phenyl)propanamido)benzoic Acid] | 0.552 | –
COCCNC(=O)[C@H](Cc1ccccc1)n1cnc(-c2cc(Cl)ccc2-n2cc(Cl)nn2)cc1=O [Example 85, (S)-2-(4-(5-chloro-2-(4-chloro-1H-1,2,3-triazol-1-yl)phenyl)-6-oxopyrimidin-1(6H)-yl)-N-(2-methoxyethyl)-3-phenylpropanamide] | 1.73 | –
NS(=O)(=O)C1CCN(C(=O)[C@H](Cc2ccccc2)n2cnc(-c3cc(Cl)ccc3-n3cc(Cl)nn3)cc2=O)CC1 [Example 84, (S)-1-(2-(4-(5-chloro-2-(4-chloro-1H-1,2,3-triazol-1-yl)phenyl)-6-oxopyrimidin-1(6H)-yl)-3-phenylpropanoyl)piperidine-4-sulfonamide] | 2.52 | –
O=C1NCc2ccc(NC(=O)[C@H](Cc3ccccc3)n3cnc(-c4cc(Cl)ccc4-n4cc(Cl)nn4)cc3=O)cc21 [Example 117, (S)-2-(4-(5-chloro-2-(4-chloro-1H-1,2,3-triazol-1-yl)phenyl)-6-oxopyrimidin-1(6H)-yl)-N-(3-oxoisoindolin-5-yl)-3-phenylpropanamide] | 0.102 | –
O=C(NC1CCCCC1)[C@H](Cc1ccccc1)n1cnc(-c2cc(Cl)ccc2-n2cc(Cl)nn2)cc1=O [Example 104, (S)-2-(4-(5-chloro-2-(4-chloro-1H-1,2,3-triazol-1-yl)phenyl)-6-oxopyrimidin-1(6H)-yl)-N-cyclohexyl-3-phenylpropanamide] | 0.231 | –
O=C([C@H](Cc1ccccc1)n1cnc(-c2cc(Cl)ccc2-n2cc(Cl)nn2)cc1=O)N1CCC(c2ccc(Cl)cc2)CC1 [Example 52, (S)-6-(5-chloro-2-(4-chloro-1H-1,2,3-triazol-1-yl)phenyl)-3-(1-(4-(4-chlorophenyl)piperidin-1-yl)-1-oxo-3-phenylpropan-2-yl)pyrimidin-4(3H)-one] | 4.44 | –
